Assay results reported in patent US20020137929A1, “1 - (3-heterocyclylphenyl) isothiourea, -isourea, -guanidine and -amidine herbicidal agents” (Intellectual Property Department, BASF Aktiengesellschaft, priority 1998, published 2002).

Experiments:
CYPIR (Rice Flatsedge) = assay: Postemergence weed control under flooded paddy conditions; assay type: in vivo, Cyperus iria; conditions: postemergence weeds, 3-4 weeks after treatment
Outline: (§1)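 Herbicidal effect is judged by eye on a 0–9 scale versus control, 3–4 weeks after dosing. Dosing is into flood water kept 1.5–3 cm over the soil, at about 0.0313–0.500 kg/ha in aqueous/acetone 50/50 v/v, on 3–5 cm weeds and 1.5–2.5-leaf rice seedlings.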

[1] = tested on: IPOHE (Morningglory, Ivyleaf); assay: Postemergence herbicidal evaluation; assay type: in vivo, Ipomoea hederacea
Outline: (§2)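 Rate range approx. 0.0156–0.500 kg/ha. Foliar application at 40 psi to ~2-week seedlings; surfactant 0.5% TWEEN 20 in 50/50 acetone/water. Evaluation 4–5 wk post-treatment by 0–9 visual injury score, means of replicate tests.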

ABUTH (Velvetleaf) [2] = assay: Preemergence herbicidal evaluation; assay type: in vivo, Abutilon theophrasti; conditions: rated 4-5 weeks after treatment
Outline: (§3)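 Sown cups got a single aqueous acetone spray of test compound (roughly 0.0156–0.500 kg/ha) before seedlings emerged. Evaluation, 4–5 weeks on, used a 0–9 visual scale covering plant stand, vigor, size, malformation, chlorosis and general appearance compared with controls.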

ABUTH (Velvetleaf) [3] = assay: Postemergence herbicidal evaluation; assay type: in vivo, Abutilon theophrasti
Outline: as §2

ZEAMX (Corn, Field) [4] = assay: Preemergence herbicidal evaluation; assay type: in vivo, Zea mays; conditions: rated 4-5 weeks after treatment
Outline: as §3

SETVI (Foxtail, Green) = assay: Postemergence herbicidal evaluation; assay type: in vivo, Setaria viridis
Outline: as §2

[5] = tested on: TRZAWR (Wheat, Winter, cv Riband); assay: Preemergence herbicidal evaluation; assay type: in vivo, Triticum aestivum; conditions: rated 4-5 weeks after treatment
Outline: as §3

[6] = tested on: GLXMAW (Soybean, Williams); assay: Preemergence herbicidal evaluation; assay type: in vivo, Glycine max, (L.) Merr. cv Williams; conditions: rated 4-5 weeks after treatment
Outline: as §3

CYPSE (Flatsedge) = assay: Postemergence weed control under flooded paddy conditions; assay type: in vivo, Cyperus serotinus; conditions: postemergence weeds, 3-4 weeks after treatment
Outline: as §1

[7] = tested on: IPOHE (Morningglory, Ivyleaf); assay: Preemergence herbicidal evaluation; assay type: in vivo, Ipomoea hederacea; conditions: rated 4-5 weeks after treatment
Outline: as §3

ECHCG (Barnyardgrass) [8] = assay: Preemergence herbicidal evaluation; assay type: in vivo, Echinochloa crus-galli; conditions: rated 4-5 weeks after treatment
Outline: as §3

ZEAMX (Corn, Field) [9] = assay: Postemergence herbicidal evaluation; assay type: in vivo, Zea mays
Outline: as §2

ORYSAT (Rice, Tebonnet) = assay: Postemergence herbicidal evaluation; assay type: in vivo, Oryza sativa, (L.) Tebonnet
Outline: as §2

[10] = tested on: CHEAL (Lambsquarters, Common); assay: Preemergence herbicidal evaluation; assay type: in vivo, Chenopodium album; conditions: rated 4-5 weeks after treatment
Outline: as §3

CASOB (Sicklepod) = assay: Preemergence herbicidal evaluation; assay type: in vivo, Cassia obtusifolia; conditions: rated 4-5 weeks after treatment
Outline: as §3

ECHCG (Barnyardgrass) [11] = assay: Postemergence herbicidal evaluation; assay type: in vivo, Echinochloa crus-galli
Outline: as §2

[12] = tested on: CHEAL (Lambsquarters, Common); assay: Postemergence herbicidal evaluation; assay type: in vivo, Chenopodium album
Outline: as §2

COC(=O)CCN1C(=O)CSC1=Nc1cc(-n2c(=O)cc(C(F)(F)F)n(C)c2=O)c(F)cc1Cl [Compound 28, Methyl 2-{{2-chloro-5-[3,6-dihydro-3-methyl-2,6-dioxo-4-(trifluoromethyl)-1(2H)-pyrimidinyl]-4-fluorophenyl}imino}-4-oxo-3-thiazolidinepropionate]
Herbicidal rating CYPIR (CYPIR (Rice Flatsedge); rate 0.0313 kg/ha): 9.0
Herbicidal rating CYPIR (CYPIR (Rice Flatsedge); rate 0.0625 kg/ha): 9.0
Herbicidal rating CYPIR (CYPIR (Rice Flatsedge); rate 0.1250 kg/ha): 9.0
Herbicidal rating CYPIR (CYPIR (Rice Flatsedge); rate 0.2500 kg/ha): 9.0
Postemergence herbicidal rating IPOHE ([1]; Rate 0.0158 kg/ha): 9.0
Postemergence herbicidal rating IPOHE ([1]; Rate 0.0315 kg/ha): 9.0
Postemergence herbicidal rating IPOHE ([1]; Rate 0.0630 kg/ha): 9.0
Preemergence herbicidal rating ABUTH (ABUTH (Velvetleaf) [2]; rate 0.1250 kg/ha): 3.0
Preemergence herbicidal rating ABUTH (ABUTH (Velvetleaf) [2]; rate 0.2500 kg/ha): 9.0
Postemergence herbicidal rating ABUTH (ABUTH (Velvetleaf) [3]; Rate 0.0158 kg/ha): 9.0
Postemergence herbicidal rating ABUTH (ABUTH (Velvetleaf) [3]; Rate 0.0315 kg/ha): 9.0
Postemergence herbicidal rating ABUTH (ABUTH (Velvetleaf) [3]; Rate 0.0630 kg/ha): 9.0
Preemergence herbicidal rating ZEAMX (ZEAMX (Corn, Field) [4]; rate 0.0625 kg/ha): 5.0
Preemergence herbicidal rating ZEAMX (ZEAMX (Corn, Field) [4]; rate 0.1250 kg/ha): 9.0
Preemergence herbicidal rating ZEAMX (ZEAMX (Corn, Field) [4]; rate 0.2500 kg/ha): 8.0
Postemergence herbicidal rating SETVI (SETVI (Foxtail, Green); Rate 0.0158 kg/ha): 0.0
Postemergence herbicidal rating SETVI (SETVI (Foxtail, Green); Rate 0.0315 kg/ha): 9.0
Postemergence herbicidal rating SETVI (SETVI (Foxtail, Green); Rate 0.0630 kg/ha): 9.0
Preemergence herbicidal rating TRZAWR ([5]; rate 0.0625 kg/ha): 0.0
Preemergence herbicidal rating TRZAWR ([5]; rate 0.2500 kg/ha): 8.0
Preemergence herbicidal rating GLXMAW ([6]; rate 0.0625 kg/ha): 3.0
Preemergence herbicidal rating GLXMAW ([6]; rate 0.1250 kg/ha): 5.0
Preemergence herbicidal rating GLXMAW ([6]; rate 0.2500 kg/ha): 9.0
Herbicidal rating CYPSE (CYPSE (Flatsedge); rate 0.0313 kg/ha): 0.0
Herbicidal rating CYPSE (CYPSE (Flatsedge); rate 0.0625 kg/ha): 0.0
Herbicidal rating CYPSE (CYPSE (Flatsedge); rate 0.1250 kg/ha): 0.0
Herbicidal rating CYPSE (CYPSE (Flatsedge); rate 0.2500 kg/ha): 0.0
Preemergence herbicidal rating IPOHE ([7]; rate 0.0625 kg/ha): 0.0
Preemergence herbicidal rating IPOHE ([7]; rate 0.1250 kg/ha): 2.0
Preemergence herbicidal rating IPOHE ([7]; rate 0.2500 kg/ha): 9.0
Preemergence herbicidal rating ECHCG (ECHCG (Barnyardgrass) [8]; rate 0.0625 kg/ha): 0.0
Preemergence herbicidal rating ECHCG (ECHCG (Barnyardgrass) [8]; rate 0.1250 kg/ha): 9.0
Preemergence herbicidal rating ECHCG (ECHCG (Barnyardgrass) [8]; rate 0.2500 kg/ha): 9.0
Postemergence herbicidal rating ZEAMX (ZEAMX (Corn, Field) [9]; Rate 0.0158 kg/ha): 7.5
Postemergence herbicidal rating ZEAMX (ZEAMX (Corn, Field) [9]; Rate 0.0315 kg/ha): 7.5
Postemergence herbicidal rating ZEAMX (ZEAMX (Corn, Field) [9]; Rate 0.0630 kg/ha): 9.0
Postemergence herbicidal rating ORYSAT (ORYSAT (Rice, Tebonnet); Rate 0.0158 kg/ha): 2.5
Postemergence herbicidal rating ORYSAT (ORYSAT (Rice, Tebonnet); Rate 0.0315 kg/ha): 3.5
Postemergence herbicidal rating ORYSAT (ORYSAT (Rice, Tebonnet); Rate 0.0630 kg/ha): 6.0
Preemergence herbicidal rating CHEAL ([10]; rate 0.0625 kg/ha): 0.0
Preemergence herbicidal rating CHEAL ([10]; rate 0.1250 kg/ha): 9.0
Preemergence herbicidal rating CHEAL ([10]; rate 0.2500 kg/ha): 9.0
Preemergence herbicidal rating CASOB (CASOB (Sicklepod); rate 0.0625 kg/ha): 0.0
Preemergence herbicidal rating CASOB (CASOB (Sicklepod); rate 0.1250 kg/ha): 0.0
Preemergence herbicidal rating CASOB (CASOB (Sicklepod); rate 0.2500 kg/ha): 0.0
Postemergence herbicidal rating ECHCG (ECHCG (Barnyardgrass) [11]; Rate 0.0158 kg/ha): 0.0
Postemergence herbicidal rating ECHCG (ECHCG (Barnyardgrass) [11]; Rate 0.0315 kg/ha): 5.0
Postemergence herbicidal rating ECHCG (ECHCG (Barnyardgrass) [11]; Rate 0.0630 kg/ha): 9.0
Postemergence herbicidal rating CHEAL ([12]; Rate 0.0158 kg/ha): 2.0
Postemergence herbicidal rating CHEAL ([12]; Rate 0.0315 kg/ha): 4.0
Postemergence herbicidal rating CHEAL ([12]; Rate 0.0630 kg/ha): 4.0
